Values of other authors in patent US11311591B2, “Use of copaifera oleoresin in pathologies of the prostate” (PIERRE FABRE MEDICAMENT, priority 2017, dated 2022).

Assays:
[1] = molecular target: HSP27 (Homo sapiens, UniProt P04792); settings: prior art, Phytochemistry Letters 10 (2014)
[2] = tested on: serum dihydrotestosterone
[3] = molecular target: T1, 5αR1 (Homo sapiens, UniProt P18405)
T1 sequence (P18405 1-259): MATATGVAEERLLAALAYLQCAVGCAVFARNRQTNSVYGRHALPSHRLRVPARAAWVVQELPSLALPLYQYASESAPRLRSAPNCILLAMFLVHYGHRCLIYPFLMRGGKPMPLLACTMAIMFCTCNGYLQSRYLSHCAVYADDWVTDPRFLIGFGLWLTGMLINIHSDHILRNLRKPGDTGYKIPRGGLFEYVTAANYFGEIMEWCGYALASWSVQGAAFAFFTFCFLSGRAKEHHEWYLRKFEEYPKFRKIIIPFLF

Sequence of HSP27 (P04792 whole entry): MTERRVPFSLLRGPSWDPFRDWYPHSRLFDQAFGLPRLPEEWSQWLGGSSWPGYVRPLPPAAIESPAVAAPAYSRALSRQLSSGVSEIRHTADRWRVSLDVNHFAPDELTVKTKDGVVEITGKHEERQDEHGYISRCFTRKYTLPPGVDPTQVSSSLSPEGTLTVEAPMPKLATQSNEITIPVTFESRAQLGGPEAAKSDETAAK

| inhibition of HSP27 (in words) [1] | SMILES | reduction of mean serum dihydrotestosterone levels [2] [%] | IC50 [3] [nM] |
| --- | --- | --- | --- |
| inhibits HSP27 | CC1CCC2(C)C(C(=O)O)=CCCC2C1(C)CCc1ccoc1 (centres unmarked) [hardwickiic acid, Hardwickiic acid] |  |  |
|  | CC(C)(C)NC(=O)[C@H]1CC[C@H]2[C@@H]3CC[C@H]4NC(=O)C=C[C@]4(C)[C@H]3CC[C@]12C [Finasteride] | 70.8 | 360 |
|  | C[C@]12C=CC(=O)N[C@@H]1CC[C@@H]1[C@@H]2CC[C@]2(C)[C@@H](C(=O)Nc3cc(C(F)(F)F)ccc3C(F)(F)F)CC[C@@H]12 [dutasteride] | 94.7 | 6 |
